Calls of active or inactive are those of the source. No cut-off for these calls is given here.
Experiments:
[1] = tested on: Elatine triandra; experiment: Post-emergence herbicidal activity against Elatine triandra assessed as bleaching of stem/leaf parts; format: functional, organism-based; note: test concentration or dose not given here
[2] = tested on: Ammannia multiflora; experiment: Post-emergence herbicidal activity against Ammannia multiflora assessed as bleaching of stem/leaf parts; format: functional, organism-based
[3] = tested on: Rotala indica; experiment: Post-emergence herbicidal activity against Rotala indica assessed as bleaching of stem/leaf parts; format: functional, organism-based
[4] = tested on: Lindernia procumbens; experiment: Post-emergence herbicidal activity against Lindernia procumbens assessed as bleaching of stem/leaf parts; format: functional, organism-based; note: test concentration or dose not given here
[5] = tested on: Schoenoplectiella juncoides; experiment: Post-emergence herbicidal activity against Schoenoplectiella juncoides assessed as bleaching of stem/leaf parts; format: functional, organism-based; note: test concentration or dose not given here
[6] = tested on: Elatine triandra; experiment: Pre-emergence herbicidal activity against Elatine triandra at 100 g a.i/ha measured after 14 days; format: functional, organism-based
[7] = tested on: Rotala indica; experiment: Pre-emergence herbicidal activity against Rotala indica at 100 g a.i/ha measured after 14 days; format: functional, organism-based
[8] = tested on: Oryza sativa; experiment: Phytotoxicity against Oryza sativa cv. Koshihikari (rice) at 100 g a.i/ha measured after 14 days; format: organism-based; conditions: in vivo, 336 h
[9] = tested on: Ammannia multiflora; experiment: Pre-emergence herbicidal activity against Ammannia multiflora at 100 g a.i/ha measured after 14 days; format: functional, organism-based
[10] = tested on: Lindernia procumbens; experiment: Pre-emergence herbicidal activity against Lindernia procumbens at 100 g a.i/ha measured after 14 days; format: functional, organism-based
[11] = tested on: Schoenoplectiella juncoides; experiment: Pre-emergence herbicidal activity against Schoenoplectiella juncoides at 100 g a.i/ha measured after 14 days; format: functional, organism-based
[12] = tested on: Pontederia vaginalis; experiment: Pre-emergence herbicidal activity against Monochoria vaginalis at 100 g a.i/ha measured after 14 days; format: functional, organism-based
[13] = tested on: Cyperus difformis; experiment: Pre-emergence herbicidal activity against Cyperus difformis at 100 g a.i/ha measured after 14 days; format: functional, organism-based
[14] = tested on: Echinochloa oryzicola; experiment: Pre-emergence herbicidal activity against Echinochloa oryzicola at 100 g a.i/ha measured after 14 days; format: functional, organism-based
[15] = tested on: Lindernia procumbens; experiment: Pre-emergence herbicidal activity against Lindernia procumbens assessed as bleaching of stem/leaf parts; format: functional, organism-based
[16] = tested on: Pontederia vaginalis; experiment: Pre-emergence herbicidal activity against Monochoria vaginalis assessed as bleaching of stem/leaf parts; format: functional, organism-based
[17] = tested on: Schoenoplectiella juncoides; experiment: Pre-emergence herbicidal activity against Schoenoplectiella juncoides assessed as bleaching of stem/leaf parts; format: functional, organism-based
[18] = tested on: Cyperus difformis; experiment: Pre-emergence herbicidal activity against Cyperus difformis assessed as bleaching of stem/leaf parts; format: functional, organism-based
[19] = tested on: Echinochloa oryzicola; experiment: Pre-emergence herbicidal activity against Echinochloa oryzicola assessed as bleaching of stem/leaf parts; format: functional, organism-based
[20] = tested on: Cyperus difformis; experiment: Post-emergence herbicidal activity against Cyperus difformis assessed as bleaching of stem/leaf parts; format: functional, organism-based; note: test concentration or dose not given here
[21] = tested on: Pontederia vaginalis; experiment: Post-emergence herbicidal activity against Monochoria vaginalis assessed as bleaching of stem/leaf parts; format: functional, organism-based
[22] = tested on: Echinochloa oryzicola; experiment: Post-emergence herbicidal activity against Echinochloa oryzicola assessed as bleaching of stem/leaf parts; format: functional, organism-based
[23] = tested on: Ammannia multiflora; experiment: Pre-emergence herbicidal activity against Ammannia multiflora assessed as bleaching of stem/leaf parts; format: functional, organism-based
[24] = tested on: Elatine triandra; experiment: Pre-emergence herbicidal activity against Elatine triandra assessed as bleaching of stem/leaf parts; format: functional, organism-based
[25] = tested on: Rotala indica; experiment: Pre-emergence herbicidal activity against Rotala indica assessed as bleaching of stem/leaf parts; format: functional, organism-based
[26] = tested on: Oryza sativa; experiment: Phytotoxicity against Oryza sativa cv. Koshihikari (rice) at 33 g a.i/ha measured after 14 days; format: organism-based; conditions: in vivo, 336 h
[27] = tested on: Ammannia multiflora; experiment: Pre-emergence herbicidal activity against Ammannia multiflora at 33 g a.i/ha measured after 14 days; format: functional, organism-based
[28] = tested on: Elatine triandra; experiment: Pre-emergence herbicidal activity against Elatine triandra at 33 g a.i/ha measured after 14 days; format: functional, organism-based
[29] = tested on: Rotala indica; experiment: Pre-emergence herbicidal activity against Rotala indica at 33 g a.i/ha measured after 14 days; format: functional, organism-based
[30] = tested on: Lindernia procumbens; experiment: Pre-emergence herbicidal activity against Lindernia procumbens at 33 g a.i/ha measured after 14 days; format: functional, organism-based
[31] = tested on: Schoenoplectiella juncoides; experiment: Pre-emergence herbicidal activity against Schoenoplectiella juncoides at 33 g a.i/ha measured after 14 days; format: functional, organism-based
[32] = tested on: Pontederia vaginalis; experiment: Pre-emergence herbicidal activity against Monochoria vaginalis at 33 g a.i/ha measured after 14 days; format: functional, organism-based
[33] = tested on: Cyperus difformis; experiment: Pre-emergence herbicidal activity against Cyperus difformis at 33 g a.i/ha measured after 14 days; format: functional, organism-based
[34] = tested on: Echinochloa oryzicola; experiment: Pre-emergence herbicidal activity against Echinochloa oryzicola at 33 g a.i/ha measured after 14 days; format: functional, organism-based
[35] = tested on: Ammannia multiflora; experiment: Pre-emergence herbicidal activity against Ammannia multiflora at 500 g a.i/ha measured after 14 days; format: functional, organism-based
[36] = tested on: Elatine triandra; experiment: Pre-emergence herbicidal activity against Elatine triandra at 500 g a.i/ha measured after 14 days; format: functional, organism-based
[37] = tested on: Oryza sativa; experiment: Phytotoxicity against Oryza sativa cv. Koshihikari (rice) at 500 g a.i/ha measured after 14 days; format: organism-based; conditions: in vivo, 336 h
[38] = tested on: Rotala indica; experiment: Pre-emergence herbicidal activity against Rotala indica at 500 g a.i/ha measured after 14 days; format: functional, organism-based
[39] = tested on: Lindernia procumbens; experiment: Pre-emergence herbicidal activity against Lindernia procumbens at 500 g a.i/ha measured after 14 days; format: functional, organism-based
[40] = tested on: Schoenoplectiella juncoides; experiment: Pre-emergence herbicidal activity against Schoenoplectiella juncoides at 500 g a.i/ha measured after 14 days; format: functional, organism-based
[41] = tested on: Pontederia vaginalis; experiment: Pre-emergence herbicidal activity against Monochoria vaginalis at 500 g a.i/ha measured after 14 days; format: functional, organism-based
[42] = tested on: Cyperus difformis; experiment: Pre-emergence herbicidal activity against Cyperus difformis at 500 g a.i/ha measured after 14 days; format: functional, organism-based
[43] = tested on: Echinochloa oryzicola; experiment: Pre-emergence herbicidal activity against Echinochloa oryzicola at 500 g a.i/ha measured after 14 days; format: functional, organism-based

Compound | Activity [1] | Activity [2] | Activity [3] | Activity [4] | Activity [5] | Activity [6] | Activity [7] | Activity [8] | Activity [9] | Activity [15] | Activity [16] | Activity [17] | Activity [18] | Activity [19] | Activity [20] | Activity [21] | Activity [22] | Activity [23] | Activity [24] | Activity [25] | further results
Cn1cc(C(=O)Nc2ccccc2)c(OCc2cccc(C(F)(F)F)c2)n1 | Active | Active | Active | Active | Active | Active | Active | Non-toxic | Active | Active | Active | Active | Active | Active | Active | Active | Active | Active | Active | Active | Activity [10]: Active; Activity [11]: inactive; Activity [12]: inactive; Activity [13]: inactive; Activity [14]: Active
Cn1cc(C(=O)Nc2cccc(S(C)(=O)=O)c2)c(Oc2cccc(C(F)(F)F)c2)n1 | Active | Active | Active | Active | Active | inactive | inactive | Non-toxic | inactive | Active | Active | Active | Active | Active | Active | Active | Active | Active | Active | Active | Activity [10]: inactive; Activity [11]: inactive; Activity [12]: inactive; Activity [13]: inactive; Activity [14]: inactive
CCONC(=O)c1cn(C)nc1OCc1cccc(C(F)(F)F)c1 | Active | Active | Active | Active | Active | Active | Active | Non-toxic | Active | Active | Active | Active | Active | Active | Active | Active | Active | Active | Active | Active | Activity [26]: Non-toxic; Activity [27]: Active; Activity [28]: Active; Activity [29]: Active; Activity [30]: Active; Activity [10]: Active; Activity [31]: Active; Activity [11]: Active; Activity [32]: Active; Activity [12]: Active; Activity [33]: Active; Activity [13]: Active; Activity [14]: Active; Activity [34]: Active
COc1ccc(NC(=O)c2cn(C)nc2Oc2cccc(C(F)(F)F)c2)cc1OC | Active | Active | Active | Active | Active | inactive | inactive | Non-toxic | inactive | Active | Active | Active | Active | Active | Active | Active | Active | Active | Active | Active | Activity [10]: inactive; Activity [11]: inactive; Activity [12]: inactive; Activity [13]: inactive; Activity [14]: inactive
CCCONC(=O)c1cn(C)nc1Oc1cccc(C(F)(F)F)c1 | Active | Active | Active | Active | Active | Active | Active | Non-toxic | Active | Active | Active | Active | Active | Active | Active | Active | Active | Active | Active | Active | Activity [35]: Active; Activity [36]: Active; Activity [37]: Toxic; Activity [38]: Active; Activity [10]: Active; Activity [39]: Active; Activity [11]: Active; Activity [40]: Active; Activity [41]: Active; Activity [12]: Active; Activity [42]: Active; Activity [14]: Active; Activity [43]: Active
CCONC(=O)c1cn(C)nc1Oc1cccc(C(F)(F)F)c1 | Active | Active | Active | Active | Active | inactive | inactive | Non-toxic | inactive | Active | Active | Active | Active | Active | Active | Active | Active | Active | Active | Active | Activity [35]: Active; Activity [36]: Active; Activity [37]: Toxic; Activity [38]: Active; Activity [10]: inactive; Activity [39]: Active; Activity [11]: inactive; Activity [40]: Active; Activity [41]: Active; Activity [12]: inactive; Activity [13]: inactive; Activity [42]: Active; Activity [14]: Active; Activity [43]: Active
Cn1cc(C(=O)Nc2ccc(C(C)(C)C)cc2)c(Oc2cccc(C(F)(F)F)c2)n1 | Active | Active | Active | Active | Active | inactive | inactive | Non-toxic | inactive | Active | Active | Active | Active | Active | Active | Active | Active | Active | Active | Active | Activity [10]: inactive; Activity [11]: inactive; Activity [12]: inactive; Activity [13]: inactive; Activity [14]: inactive
Cn1cc(C(=O)Nc2ccc(F)cc2F)c(Oc2cc(C(F)(F)F)ccn2)n1 | Active | Active | Active | Active | Active | – | – | – | – | Active | Active | Active | Active | Active | Active | Active | Active | Active | Active | Active | Activity [35]: inactive; Activity [36]: inactive; Activity [37]: Non-toxic; Activity [38]: inactive; Activity [39]: inactive; Activity [40]: inactive; Activity [41]: inactive; Activity [42]: inactive; Activity [43]: inactive
